Columns and labels:
[1] = test system: CD44hi H-2Db gp100 tetramer+ CD8+ T cells; experiment: Immunization with ABP-antigen constructs, tetramer staining of peripheral blood; assay type: in vivo, C57BL6/J mice; details: for percentage CD44hi tetramer+ of total live CD8+ T cells: 5 nmol with 25 ug c-di-GMP adjuvant, prime day 0, boost day 14, peripheral blood day 21, mean response
Text: To test whether these albumin-binding peptides could enhance vaccination, a model melanoma antigen called gp100 was utilized. Vaccination against gp100 has shown significant preclinical activity (van Stipdonk, M. J. B. et al. Design of agonistic altered peptides for the robust induction of CTL directed towards H-2Db in complex with the melanoma-associated epitope gp100. Cancer research 69, 7784-7792, doi:10.1158/0008-5472.CAN-09-1724 (2009)) and has also been used clinically (Schwartzentruber, D. J. et al. gp100 Peptide Vaccine and Interleukin-2 in Patients with Advanced Melanoma. New England Journal of Medicine 364, 2119-2127, doi:10.1056/NEJMoa1012863 (2011)). An altered peptide ligand form of gp100 called EGP (sequence
To test the immunogenicity of ABP-modified peptides, C57BL6/J mice (Jackson Laboratories) were immunized with 5 nmol either ABP-G4S-EGP, ABP-PEG2000-EGP, or unmodified EGP peptide. Vaccines were formulated with 25 ug c-di-GMP (Invivogen) for adjuvant in 100 uL total volume (with sterile saline as diluent). Mice were primed on day 0, boosted on day 14, and tetramer staining was performed on day 21 to assess T cell priming in peripheral blood. (FIG. 5). Briefly, blood was isolated retro-orbitally, subjected to lysis to remove red blood cells, and incubated with tetramer (H-2Db gp100, MBL) at room temperature for 30 minutes, followed by surface staining for CD8 and CD44. DAPI was included as a viability marker, and cells were run on the LSR Fortessa (BD Biosciences). Responses were quantified as the percentage CD44^hi tetramer+ of total live CD8+ T cells. […] (FIG. 6).

MHC (H2-Db) = target: T1, MHC (H2-Db) (Mus musculus, UniProt P01899); details: H2-Db epitope; van Stipdonk et al. 2009; cited from earlier work
T1 sequence (P01899 25-362): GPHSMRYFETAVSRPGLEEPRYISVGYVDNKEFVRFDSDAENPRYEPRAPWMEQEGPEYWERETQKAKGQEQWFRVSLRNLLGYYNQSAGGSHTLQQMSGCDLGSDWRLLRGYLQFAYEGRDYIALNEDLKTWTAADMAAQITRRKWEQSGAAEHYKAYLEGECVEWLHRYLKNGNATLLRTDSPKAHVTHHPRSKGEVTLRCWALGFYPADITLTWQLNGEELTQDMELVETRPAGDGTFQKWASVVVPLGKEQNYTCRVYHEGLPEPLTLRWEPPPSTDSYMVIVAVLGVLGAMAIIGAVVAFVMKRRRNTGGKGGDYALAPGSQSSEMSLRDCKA
T1 sequence (P01887 21-119 partner): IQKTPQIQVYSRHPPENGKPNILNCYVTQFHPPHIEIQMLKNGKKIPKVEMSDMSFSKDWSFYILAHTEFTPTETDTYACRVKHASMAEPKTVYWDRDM

| Sequence | percentage CD44hi tetramer+ of total live CD8+ T cells [1] [%] | fold higher response than unmodified peptide ([1]; CD44hi tetramer+ of live CD8+ T cells, day 21, relative to unmodified EGP peptide) | response compared with background in unimmunized mice ([1]; day 21 tetramer staining, background 0.82%) | affinity for MHC relative to native form (EGS) (MHC (H2-Db)) |
| --- | --- | --- | --- | --- |
| DICLPRWGCLWGGGGSAVGALEGPRNQDWLGVPRQL [ABP-G4S-EGP] | 5.56 | approximately 4 fold |  |  |
| AVGALEGPRNQDWLGVPRQL (Synthetic EGP long peptide) [unmodified EGP peptide, altered peptide ligand form of melanoma antigen gp100] | 1.45 |  | not statistically different from background | enhanced affinity for MHC over the native form |

— patent publication US11077199B2, “Albumin binding peptide conjugates and methods thereof” (Massachusetts Institute of Technology, priority 2017, dated 2021)
